Data as given in US4578383A, “CL 1565 antibiotic compounds” (priority 1984, dated 1986).
Read-outs that look alike come from different tables or passages of the source.

Tested on: P388 Lymphatic Leukemia
Type: in vivo, Mice
Text: The test method used is based on that described in Cancer Chemother. Reports 3:1-87 (part 3), 1972.

[1] = 3.1 mg/kg/day (CL 1565-T and CL 1565-B tables)
[2] = 6.3 mg/kg/day (CL 1565-T and CL 1565-B tables)
[3] = 12.5 mg/kg/day (CL 1565-T and CL 1565-B tables)

## CC=CC=CC=CC(O)CC(OP(=O)(O)O)C(C)(O)C=CC1CC=CC(=O)O1 (centres unmarked) [CL 1565-B]
[1]
  T/C × 100: 129
[2]
  T/C × 100: 142
[3]
  T/C × 100: 178
25.0 mg/kg/day (CL 1565-B table)
  T/C × 100 (toxicity noted): Toxic

## CC(O)(C=CC1OC(=O)C=CC1O)C(CC(O)C=CC=CC=CCO)OP(=O)(O)O (centres unmarked) [CL 1565-T]
[1]
  T/C × 100: 147
[2]
  T/C × 100: 142
[3]
  T/C × 100: 147
25.0 mg/kg/day (CL 1565-T table)
  T/C × 100: 157
